Read-outs that look alike come from different tables or passages of the source.
Key:
[1] = target: WDR5 (Homo sapiens (Human), UniProt P61964); assay: TR-FRET binding assay (displacement of 10mer-Thr-FAM probe from WDR5)
[2] = test system: MV4:11 human cancer cell lines; assay: Anti-proliferative activity, CellTiter-Glo viability assay, 7 day protocol; type: cell-based; details: Homo sapiens, MV4-11, 168 h, MV4:11 cells, 7 day incubation, read-out: GI50 on cellular proliferation of MV4:11 human cancer cell lines
Outline: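 MV4:11 cells seeded at 3600 cells/ml and exposed to compounds for 7 days, 0.1% DMSO final. Viability measured by CellTiter-Glo luminescence. GI50 from three biological replicates, each in technical triplicate, given as mean ± S.E.M.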

[3] = read-out: Ki for Inhibition of WDR5 by TR-FRET assay, TR-FRET, 10mer-Thr-FAM probe, WDR5-His tag 2 nM, pH 7.0
[4] = read-out: Ki for Inhibition of WDR5 by TR-FRET assay

Structure (SMILES)	Ki [1, 3] [nM]	GI50 [2] [nM]	Ki [1, 4] [nM]	Ki [1] [nM]
N=C1OCCN1Cc1cc(C(=O)N[C@H](c2ccc(Cl)c(Cl)c2)C2CC2)cc(-c2ncc(F)cc2C(F)(F)F)c1 [Example 284, (S)—N-(Cyclopropyl(3,4-dichlorophenyl)methyl)-3-(5-fluoro-3-(trifluoromethyl)pyridin-2-yl)-5-((2-iminooxazolidin-3-yl)methyl)benzamide]	0.11	270	–	–
Cc1cc([C@@H](NC(=O)c2cc(CN3CCOC3=N)cc(-c3ccc(F)cc3C(F)(F)F)c2)C2CC2)ccc1F [Example 285, (S)—N-(Cyclopropyl(4-fluoro-3-methylphenyl)methyl)-4′-fluoro-5-((2-iminooxazolidin-3-yl)methyl)-2′-(trifluoromethyl)-[1,1′-biphenyl]-3-carboxamide]	< 0.1	< 100	–	–
CC(C)n1cc(-c2cc(CN3CCOC3=N)cc(C(=O)N[C@H](c3ccc(F)c(F)c3)C3CC3)c2)c(C(F)(F)F)n1 [Example 286, (S)—N-(Cyclopropyl(3,4difluorophenyl)methyl)-3-((2-iminooxazolidin-3-yl)methyl)-5-(1-isopropyl-3-(trifluoromethyl)-1H-pyrazol-4-yl)benzamide]	< 0.1	< 100	–	–
Cc1cc([C@@H](NC(=O)c2cc(CN3CCOC3=N)cc(-c3cc(C(F)(F)F)nn3C)c2)C2CC2)ccc1F [Example 287, (S)—N-(Cyclopropyl(4-fluoro-3-methylphenyl)methyl)-3-((2-iminooxazolidin-3-yl)methyl)-5-(1-methyl-3-(trifluoromethyl)-1H-pyrazol-5-yl)benzamide]	–	100	< 0.1	–
Cc1cc([C@@H](NC(=O)c2cc(Cn3ccoc3=N)cc(-c3cn(C(C)C)nc3C(F)(F)F)c2)C2CC2)ccc1F [Example 291, (S)—N-(Cyclopropyl(4-fluoro-3-methylphenyl)methyl)-3-((2-iminooxazol-3(2H)-yl)methyl)-5-(1-isopropyl-3-(trifluromethyl)-1H-pyrazol-4-yl)benzamide]	< 0.1	< 100	–	–
CCn1cc(-c2cc(Cn3ccoc3=N)cc(C(=O)NCc3ccc(F)c(C)c3)c2)c(C(F)(F)F)n1 [Example 294, 3-(1-Ethyl-3-(trifluoromethyl)-1H-pyrazol-4-yl)-N-(4-fluoro-3-methylbenzyl)-5-((2-iminooxazol-3(2H)-yl)methyl)benzamide]	–	< 100	< 0.1	–
CCn1cc(-c2cc(CN3CCOC3=N)cc(C(=O)NCc3ccc(F)c(C)c3)c2)c(C(F)(F)F)n1 [Example 295, 3-(1-Ethyl-3-(trifluoromethyl)-1H-pyrazol-4-yl)-N-(4-fluoro-3-methylbenzyl)-5-((2-iminooxazolidin-3-yl)methyl)benzamide]	–	< 100	< 0.1	–
CCn1cc(-c2cc(Cn3ccoc3=N)cc(C(=O)N[C@H](c3ccc(F)c(Cl)c3)C3CC3)c2)c(C(F)(F)F)n1 [Example 298, (S)—N-((3-Chloro-4-fluorophenyl)(cyclopropyl)methyl)-3-(1-ethyl-3-(trifluoromethyl)-1H-pyrazol-4-yl)-5-((2-iminooxazol-3(2H)-yl)methyl)benzamide]	< 0.1	< 100	–	–
Cc1cc([C@@H](NC(=O)c2cc(Cn3ccoc3=N)cc(-c3cn(C)nc3C(F)(F)F)c2)C2CC2)ncc1F [Example 299, (S)—N-(Cyclopropyl(5-fluoro-4-methylpyridin-2-yl)methyl)-3-((2-iminooxazol-3(2H)-yl)methyl)-5-(1-methyl-3-(trifluoromethyl)-1H-pyrazol-4-yl)benzamide]	< 0.1	< 100	–	–
Cc1cc([C@@H](NC(=O)c2cc(CN3CCOC3=N)cc(-c3cn(C)nc3C(F)(F)F)c2)C2CC2)ncc1F [Example 300, (S)—N-(Cyclopropyl(5-fluoro-4-methylpyridin-2-yl)methyl)-3-((2-iminooxazolidin-3-yl)methyl)-5-(1-methyl-3-(trifluoromethyl)-1H-pyrazol-4-yl)benzamide]	< 0.1	< 100	–	–
N=C1OCCN1Cc1cc(C(=O)N[C@H](c2ccc(Cl)c(F)c2)C2CC2)cc(-c2ccc(F)cc2Cl)c1 [Example 301, (S)-2′-Chloro-N-((4-chloro-3-fluorophenyl)(cyclopropyl)methyl)-4′-fluoro-5-((2-iminooxazolidin-3-yl)methyl)-[1,1′-biphenyl]-3-carboxamide]	< 0.1	270	–	–
CCOc1c(C(=O)N[C@@H](C)c2ccc(F)c(C)c2)cc(CN2CCOC2=N)cc1-c1cn(C)nc1C(F)(F)F [Example 302, (S)-2-Ethoxy-N-(1-(4-fluoro-3-methylphenyl)ethyl)-5-((2-iminooxazolidin-3-yl)methyl)-3-(1-methyl-3-(trifluoromethyl)-1H-pyrazol-4-yl)benzamide]	< 0.1	< 100	–	–
CCOc1c(C(=O)N[C@H](c2ccc(F)c(C)c2)C2CC2)cc(CN2CCOC2=N)cc1-c1cn(C)nc1C(F)(F)F [Example 303, (S)—N-(Cyclopropyl(4-fluoro-3-methylphenyl)methyl)-2-ethoxy-5-((2-iminooxazolidin-3-yl)methyl)-3-(1-methyl-3-(trifluoromethyl)-1H-pyrazol-4-yl)benzamide]	< 0.1	< 100	–	–
COc1cc([C@@H](NC(=O)c2cc(CN3CCOC3=N)cc(-c3cccnc3C(F)(F)F)c2)C2CC2)ccc1F [Example 305, (S)—N-(Cyclopropyl(4-fluoro-3-methoxyphenyl)methyl)-3-((2-iminooxazolidin-3-yl)methyl)-5-(2-(trifluoromethyl)pyridin-3-yl)benzamide]	< 0.1	< 100	–	–
COc1cc([C@@H](NC(=O)c2cc(Cn3ccoc3=N)cc(-c3cn(C)nc3C(F)(F)F)c2)C2CC2)ncc1F [Example 306, (S)—N-(Cyclopropyl(5-fluoro-4-methoxypyridin-2-yl)methyl)-3-((2-iminooxazol-3(2H)-yl)methyl)-5-(1-methyl-3-(trifluoromethyl)-1H-pyrazol-4-yl)benzamide]	–	410	–	< 0.1
COc1cc(CNC(=O)c2cc(CN3CCSC3=N)cc(-c3ccc(F)cc3C)c2)cc(OC)c1 [Example 308, N-(3,5-Dimethoxybenzyl)-4′-fluoro-5-((2-iminothiazolidin-3-yl)methyl)-2′-methyl-[1,1′-biphenyl]-3-carboxamide]	–	630	0.45	–
N=C1SCCN1Cc1cc(C(=O)N[C@H](c2ccc(Cl)c(Cl)c2)C2CC2)cc(-c2ccc(F)cc2OC(F)F)c1 [Example 309, (S)—N-(Cyclopropyl(3,4-dichlorophenyl)methyl)-2′-(difluoromethoxy)-4′-fluoro-5-((2-iminothiazolidin-3-yl)methyl)-[1,1′-biphenyl]-3-carboxamide]	–	960	0.77	–
Cn1cc(-c2cc(CN3CCSC3=N)cc(C(=O)N[C@H](c3ccc(Cl)c(Cl)c3)C3CC3)c2)c(C(F)(F)F)n1 [Example 310, (S)—N-(Cyclopropyl(3,4-dichlorophenyl)methyl)-3-((2-iminothiazolidin-3-yl)methyl)-5-(1-methyl-3-(trifluoromethyl)-1H-pyrazol-4-yl)benzamide]	–	170	< 0.1	–
CCn1cc(-c2cc(CN3CCSC3=N)cc(C(=O)N[C@H](c3ccc(F)c(C)c3)C3CC3)c2)c(C(F)(F)F)n1 [Example 312, (S)—N-(Cyclopropyl (4-fluoro-3-methylphenyl)methyl)-3-(1-ethyl-3-(trifluoromethyl)-1H-pyrazol-4-yl)-5-((2-iminothiazolidin-3-yl)methyl)benzamide]	< 0.1	< 100	–	–
CCn1cc(-c2cc(Cn3ccsc3=N)cc(C(=O)N[C@H](c3ccc(F)c(C)c3)C3CC3)c2)c(C(F)(F)F)n1 [Example 320, (S)—N-(Cyclopropyl(4-fluoro-3-methylphenyl)methyl)-3-(1-ethyl-3-(trifluoromethyl)-1H-pyrazol-4-yl)-5-((2-iminothiazol-3(2H)-yl)methyl)benzamide]	< 0.1	< 100	–	–
Cc1cc([C@@H](NC(=O)c2cc(Cn3ccsc3=N)cc(-c3cn(C)nc3C(F)(F)F)c2)C2CC2)ccc1F [Example 321, (S)—N-(Cyclopropyl(4-fluoro-3-methylphenyl)methyl)-3-((2-iminothiazol-3(2H)-yl)methyl)-5-(1-methyl-3-(trifluoromethyl)-1H-pyrazol-4-yl)benzamide]	< 0.1	< 100	–	–
Cc1cc([C@@H](NC(=O)c2cc(Cn3ccsc3=N)cc(-c3cn(C(C)C)nc3C(F)(F)F)c2)C2CC2)ccc1F [Example 322, (S)—N-(Cyclopropyl(4-fluoro-3-methylphenyl)methyl)-3-((2-iminothiazol-3(2H)-yl)methyl)-5-(1-isopropyl-3-(trifluoromethyl)-1H-pyrazol-4-yl)benzamide]	–	150	< 0.1	–
CCn1cc(-c2cc(Cn3ccsc3=N)cc(C(=O)N[C@H](c3ccc(Cl)c(F)c3)C3CC3)c2)c(C(F)(F)F)n1 [Example 324, (S)—N-((4-Chloro-3-fluorphenyl)(cyclopropyl)methyl)-3-(1-ethyl-3-(trifluoromethyl)-1H-pyrazol-4-yl)-5-((2-iminothiazol-3(2H)-yl)methyl)benzamide]	–	< 100	< 0.1	–
Cc1cc([C@@H](NC(=O)c2cc(Cn3ccsc3=N)cc(-c3cn(C)nc3C(F)(F)F)c2)C2CC2)ncc1F [Example 325, (S)—N-(Cyclopropyl(5-fluoro-4-methylpyridin-2-yl)methyl)-3-((2-iminothiazol-3(2H)-yl)methyl)-5-(1-methyl-3-(trifluoromethyl)-1H-pyrazol-4-yl)benzamide]	< 0.1	< 100	–	–

Source: US10844044B2 (Vanderbilt University, priority 2018, dated 2020)
